According to PubChem BioAssay AID1963965 (Molecular Pharmacology Branch, DTP, NCI, 2024):
pIC50: −log10 of the molar value. Blank lines part the entries; values can stand above or below the molecule they belong to.

Test system: 996289-038-R-J1-PDC spheroid viability
Assay: Anticancer human tumor 996289-038-R-J1-PDC patient-derived colon adenocarcinoma cell line growth inhibition [PI3K]
Conditions: spheroids with HUVEC and MSC; for pIC50: curve of first compound; for viability, T/C: stronger effect = lower value
How it was run: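 Complex 3D spheroids (cancer cells + endothelial HUVEC + mesenchymal stem cells); drug pairs of targeted agent x inavolisib/alpelisib/duvelisib/copanlisib; half-log series from ~Cmax, max 10 microM if Cmax unknown; endpoint viability.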

[1] = second compound 0.00316 µM, first compound 0.0316 µM
[2] = second compound 0.00316 µM, first compound 0.1 µM
[3] = second compound 0.00316 µM, first compound 0.316 µM
[4] = second compound 0.00316 µM, first compound 1 µM
[5] = second compound 0.00316 µM, first compound 3.16 µM
[6] = second compound 0.00316 µM, first compound 10 µM
[7] = second compound 0.01 µM, first compound 0.0316 µM
[8] = second compound 0.01 µM, first compound 0.1 µM
[9] = second compound 0.01 µM, first compound 0.316 µM
[10] = second compound 0.01 µM, first compound 1 µM
[11] = second compound 0.01 µM, first compound 3.16 µM
[12] = second compound 0.01 µM, first compound 10 µM
[13] = second compound 0.0316 µM, first compound 0.0316 µM
[14] = second compound 0.0316 µM, first compound 0.1 µM
[15] = second compound 0.0316 µM, first compound 0.316 µM
[16] = second compound 0.0316 µM, first compound 1 µM
[17] = second compound 0.0316 µM, first compound 3.16 µM
[18] = second compound 0.0316 µM, first compound 10 µM
[19] = second compound 0.1 µM, first compound 0.0316 µM
[20] = second compound 0.1 µM, first compound 0.1 µM
[21] = second compound 0.1 µM, first compound 0.316 µM
[22] = second compound 0.1 µM, first compound 1 µM
[23] = second compound 0.1 µM, first compound 3.16 µM
[24] = second compound 0.1 µM, first compound 10 µM
[25] = second compound 0.316 µM, first compound 0.0316 µM
[26] = second compound 0.316 µM, first compound 0.1 µM
[27] = second compound 0.316 µM, first compound 0.316 µM
[28] = second compound 0.316 µM, first compound 1 µM
[29] = second compound 0.316 µM, first compound 3.16 µM
[30] = second compound 0.316 µM, first compound 10 µM
[31] = second compound 1 µM, first compound 0.0316 µM
[32] = second compound 1 µM, first compound 0.1 µM
[33] = second compound 1 µM, first compound 0.316 µM
[34] = second compound 1 µM, first compound 1 µM
[35] = second compound 1 µM, first compound 3.16 µM
[36] = second compound 1 µM, first compound 10 µM
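Further: spheroids exposed to compounds for seven days before viability read.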
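Wherever viability, T/C is given: luminescence used as a proxy for viable cell amount; percent viability relative to DMSO vehicle control as 100%.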

pIC50 (second compound 0.00316 µM): 5.30 | pIC50 (second compound 0.01 µM): 5.55 | pIC50 (second compound 0.0316 µM): 5.76 | pIC50 (second compound 0.1 µM): 6.67 | pIC50 (second compound 0.316 µM): > 7.50 | pIC50 (second compound 1 µM): > 7.50
SMILES: Cn1ncc(Cl)c1-c1cc(C(=O)NC(CN)Cc2cccc(F)c2)sc1Cl (stereo unspecified) + COc1c(OCCCN2CCOCC2)ccc2c3n(c(=NC(=O)c4cnc(N)nc4)nc12)CCN3
viability, T/C [1]: 99.4% | viability, T/C [2]: 93.6% | viability, T/C [3]: 82% | viability, T/C [4]: 73.2% | viability, T/C [5]: 56.8% | viability, T/C [6]: 39.7% | viability, T/C [7]: 92.4% | viability, T/C [8]: 87.1% | viability, T/C [9]: 74.2% | viability, T/C [10]: 59.9% | viability, T/C [11]: 54.8% | viability, T/C [12]: 26.7% | viability, T/C [13]: 81.6% | viability, T/C [14]: 66.5% | viability, T/C [15]: 70.9% | viability, T/C [16]: 62% | viability, T/C [17]: 37.6% | viability, T/C [18]: 23.7% | viability, T/C [19]: 60.3% | viability, T/C [20]: 59.4% | viability, T/C [21]: 44.6% | viability, T/C [22]: 37.3% | viability, T/C [23]: 31.3% | viability, T/C [24]: 20.5% | viability, T/C [25]: 34.8% | viability, T/C [26]: 33% | viability, T/C [27]: 32.8% | viability, T/C [28]: 32.3% | viability, T/C [29]: 30.5% | viability, T/C [30]: 15.1% | viability, T/C [31]: 18.3% | viability, T/C [32]: 19.7% | viability, T/C [33]: 17% | viability, T/C [34]: 23.1% | viability, T/C [35]: 20.1% | viability, T/C [36]: 11%

pIC50 (second compound 0.00316 µM): < 5.00 | pIC50 (second compound 0.01 µM): < 5.00 | pIC50 (second compound 0.0316 µM): < 5.00 | pIC50 (second compound 0.1 µM): < 5.00 | pIC50 (second compound 0.316 µM): > 7.50 | pIC50 (second compound 1 µM): > 7.50
SMILES: CNC(=O)c1ccc(N2C(=S)N(c3ccc(C#N)c(C(F)(F)F)c3)C(=O)C2(C)C)cc1F + COc1c(OCCCN2CCOCC2)ccc2c3n(c(=NC(=O)c4cnc(N)nc4)nc12)CCN3
viability, T/C [1]: 103% | viability, T/C [2]: 92.2% | viability, T/C [3]: 93.2% | viability, T/C [4]: 106% | viability, T/C [5]: 99.4% | viability, T/C [6]: 125% | viability, T/C [7]: 98% | viability, T/C [8]: 89.8% | viability, T/C [9]: 103% | viability, T/C [10]: 88.9% | viability, T/C [11]: 87% | viability, T/C [12]: 106% | viability, T/C [13]: 82.5% | viability, T/C [14]: 78% | viability, T/C [15]: 81% | viability, T/C [16]: 67.5% | viability, T/C [17]: 89.4% | viability, T/C [18]: 92.4% | viability, T/C [19]: 66.5% | viability, T/C [20]: 66.2% | viability, T/C [21]: 64.8% | viability, T/C [22]: 67.7% | viability, T/C [23]: 58.7% | viability, T/C [24]: 65.9% | viability, T/C [25]: 40.1% | viability, T/C [26]: 33.2% | viability, T/C [27]: 34.5% | viability, T/C [28]: 39.8% | viability, T/C [29]: 40.3% | viability, T/C [30]: 27.6% | viability, T/C [31]: 21.8% | viability, T/C [32]: 19.9% | viability, T/C [33]: 18% | viability, T/C [34]: 20.1% | viability, T/C [35]: 19.1% | viability, T/C [36]: 13.8%

pIC50 (second compound 0.00316 µM): < 7.00 | pIC50 (second compound 0.01 µM): < 7.00 | pIC50 (second compound 0.0316 µM): < 7.00 | pIC50 (second compound 0.1 µM): < 7.00 | pIC50 (second compound 0.316 µM): > 9.50 | pIC50 (second compound 1 µM): > 9.50
SMILES: Cn1ncnc1[C@H]1c2n[nH]c(=O)c3cc(F)cc(c23)N[C@@H]1c1ccc(F)cc1 + COc1c(OCCCN2CCOCC2)ccc2c3n(c(=NC(=O)c4cnc(N)nc4)nc12)CCN3
viability, T/C (second compound 0.00316 µM, first compound 0.000316 µM): 110% | viability, T/C (second compound 0.00316 µM, first compound 0.001 µM): 106% | viability, T/C (second compound 0.00316 µM, first compound 0.00316 µM): 102% | viability, T/C (second compound 0.00316 µM, first compound 0.01 µM): 112% | viability, T/C [1]: 103% | viability, T/C [2]: 103% | viability, T/C (second compound 0.01 µM, first compound 0.000316 µM): 97.7% | viability, T/C (second compound 0.01 µM, first compound 0.001 µM): 92.6% | viability, T/C (second compound 0.01 µM, first compound 0.00316 µM): 95.3% | viability, T/C (second compound 0.01 µM, first compound 0.01 µM): 100% | viability, T/C [7]: 97.3% | viability, T/C [8]: 100% | viability, T/C (second compound 0.0316 µM, first compound 0.000316 µM): 87.8% | viability, T/C (second compound 0.0316 µM, first compound 0.001 µM): 91.3% | viability, T/C (second compound 0.0316 µM, first compound 0.00316 µM): 80.3% | viability, T/C (second compound 0.0316 µM, first compound 0.01 µM): 79.4% | viability, T/C [13]: 97.7% | viability, T/C [14]: 70.8% | viability, T/C (second compound 0.1 µM, first compound 0.000316 µM): 69.4% | viability, T/C (second compound 0.1 µM, first compound 0.001 µM): 68.4% | viability, T/C (second compound 0.1 µM, first compound 0.00316 µM): 67.4% | viability, T/C (second compound 0.1 µM, first compound 0.01 µM): 63.3% | viability, T/C [19]: 64.6% | viability, T/C [20]: 48.6% | viability, T/C (second compound 0.316 µM, first compound 0.000316 µM): 41.8% | viability, T/C (second compound 0.316 µM, first compound 0.001 µM): 39.1% | viability, T/C (second compound 0.316 µM, first compound 0.00316 µM): 46.8% | viability, T/C (second compound 0.316 µM, first compound 0.01 µM): 35.3% | viability, T/C [25]: 44.2% | viability, T/C [26]: 43.8% | viability, T/C (second compound 1 µM, first compound 0.000316 µM): 22.6% | viability, T/C (second compound 1 µM, first compound 0.001 µM): 22.6% | viability, T/C (second compound 1 µM, first compound 0.00316 µM): 23.1% | viability, T/C (second compound 1 µM, first compound 0.01 µM): 18.3% | viability, T/C [31]: 25.7% | viability, T/C [32]: 20.8%
